Measurements reported in patent US6593363B1, “Diterpene derivatives and anti-inflammatory analgesic agents comprising the same” (Sae Han Pharm. Co., Ltd., priority 1998, dated 2003).
pIC50: −log10 of the molar value.

Experiments:
COX-2 = target: T1, COX-2 (Ovis aries, UniProt P79208); assay: Inhibition of PGE2 synthesis by inhibiting COX-2 activity (in vitro, TLC/autoradiography); assay type: biochemical, sheep; details: for pIC50: 3 Unit COX-2 from sheep placenta, [1-14C] arachidonic acid, 37° C. for 20 min
T1 construct: 3 Unit of COX-2 (Layman chemical) that is separated from sheep placenta and purified; purchased Layman chemical (sic); host or cells: sheep placenta (tissue-derived)
T1 sequence (P79208 17-603): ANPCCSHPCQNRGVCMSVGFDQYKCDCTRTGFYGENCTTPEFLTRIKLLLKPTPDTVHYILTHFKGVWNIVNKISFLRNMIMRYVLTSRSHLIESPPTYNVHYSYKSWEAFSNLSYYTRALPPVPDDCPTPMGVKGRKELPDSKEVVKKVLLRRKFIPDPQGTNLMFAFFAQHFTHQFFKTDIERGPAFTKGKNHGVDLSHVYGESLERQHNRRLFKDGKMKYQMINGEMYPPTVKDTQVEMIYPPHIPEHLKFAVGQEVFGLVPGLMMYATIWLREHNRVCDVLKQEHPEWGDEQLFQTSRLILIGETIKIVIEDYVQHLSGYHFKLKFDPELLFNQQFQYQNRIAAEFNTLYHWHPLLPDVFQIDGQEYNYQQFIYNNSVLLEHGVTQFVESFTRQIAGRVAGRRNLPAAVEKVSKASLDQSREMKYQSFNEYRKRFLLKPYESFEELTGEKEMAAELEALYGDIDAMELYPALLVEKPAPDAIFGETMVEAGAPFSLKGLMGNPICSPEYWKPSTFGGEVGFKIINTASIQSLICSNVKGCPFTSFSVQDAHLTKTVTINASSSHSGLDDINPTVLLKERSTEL
Experimental: The inhibition effect of the novel derivatives against PGE2 synthesis was tested in vitro. […] The novel derivatives were synthesized from (−)-pimara-9(11), 15-diene-4-carboxylic acid, which is a diterpene compound isolated from root-bark of Acanthopanax Koreanum.
The mixture was stranded on ice for 5 min. To the mixture, the sample for assay of COX-2 activity was added, and then incubated on ice for 10 min. After preincubation, 0.02 μCi of [1-^14C] arachidonic acid, as an substrate, was added, and reacted at 37° C. for 20 min. For the termination of the reaction, 10 μl of 2 M HCl was added. Prostaglandin produced was extracted with ethylether twice. Two ethylether layers were integrated, and the solvent was evaporated at a 37° C. water-bath. […] PGE2 part of TLC plate developed was observed using autoradiography (PACKARD). The amount of PGE2 decreased by the sample was compared with reference, and then COX-2 inhibition activity of the sample was determined.

Raw 264.7 = assay: Cytotoxicity, MTT assay; assay type: cell-based; details: Raw 264.7, MTT assay at 48 hours after sample treatment
Experimental: (§1) To investigate the utility of diterpene derivatives synthesized, cytotoxicities of some derivatives were tested.
(§2) The cytotoxicity was tested using Raw 264.7. The cytotoxicity and non-cytotoxicity were judged by performing MTT assay at 48 hours after sample treatment.

Cytotoxicity, MTT assay = assay type: cell-based; details: mouse, Raw 264.7 cells; Raw 264.7, MTT assay at 48 hours after sample treatment
Experimental: as §1, §2

[1] = test system: mono-arthritis model, tibeo-calcanean joint; assay: Anti-inflammatory activity against acute inflammation, adjuvant mono-arthritis model (edema index); assay type: in vivo; details: rat, 5 mg/kg intraperitoneal; for edema index size: 1 hour after inducing inflammation; for effect on edema index compared with koprofen or indometacin: after 4 hours
Experimental: For some of the natural single material and synthetic derivatives thereof, of which the inhibition effect against PGE2 synthesis was tested in Experimental example 1, the anti-inflammatory activity against arthritis was tested using a mono-arthritis model as follows:
Derivatives synthesized were dissolved in the mixed solvent of ethanol: Tween 80: saline (1:1:8), and then administered by intrapertioneal injection. Referring to the result of the in vitro test, 5 mg/kg was used as a dose for primary screening test. Adjuvant that was dissolved in mineral oil and then sterilized, was administered into tibeo-calcanean joint of right crus posterius of rat to induce arthritis. The injection volume is controlled to be contained M. butyricum 100 μg/50 μl.
Edema degree was determined primarily, and the degree was used as an index of inflammation. The degree was determined by the estimation method for section area of tibeo-calcanean joint part. Width and length measurements of the joint part were taken according to time schedule upon inducing inflammation, and the width multiplied by the length. The multiplied value was then used as a section area index (SAI). On the basis of the section area index, edema index was calculated as follows: […]
(SAI of inflammatory joint−SAI of normal joint)
Each index was determined at 1, 4 and 24 hours after adjuvant injection. The index value determined at the same part before adjuvant injection was used as one of normal joint.
Unpaired t-test or ANOVA using Fisher PLSD verified the statistical significance.

Compound	pIC50 (COX-2)	further results
C=C[C@@]1(C)CC=C2C(CCC3[C@](C)(C(N)=O)CCC[C@@]23C)C1 (stereo partly drawn) [Example 11, 4-Carbamoyl-(−)-pimara-9(11), 15-diene]	< 2.70	–
16-Hydroxy-(−)-pimara-4-carboxylic acid [Example 16]	–	inhibition effect against PGE2 synthesis (in words) (COX-2): excellent inhibition effect; pIC50 (Raw 264.7): 3.86
C=C[C@@]1(C)CC=C2C(CCC3[C@@]2(C)CCC[C@@]3(C)/C=C/C=C/C(=O)O)C1 (stereo partly drawn) [Example 29, 4-Carboxybutadienyl-(−)-pimara-9(11),15-diene]	4.57	–
C[C@]1(CCO)CC=C2C(CCC3[C@](C)(C(=O)O)CCC[C@@]23C)C1 (stereo partly drawn) [Example 15, 16-Hydroxy-(−)-pimara-9(11)-en-4-carboxylic acid]	< 2.70	IC50 at 48 h (Cytotoxicity, MTT assay): 139 µM
C=CC1(C)CC=C2C(CCC3C(C)(CCC=CC(=O)O)CCCC23C)C1 (stereo not drawn) [Example 33, 4-Carboxyhomoallyl-(−)-pimara-9(11),15-diene]	4.20	–
C=CC1(C)CC=C2C(CCC3C(C)(CO)CCCC23C)C1 (stereo not drawn) [Example 1, 4-Hydroxymethyl-(−)-pimara-9(11),15-diene]	< 2.70	–
COCOCC[C@@]1(C)CC=C2[C@@H](CC[C@@H]3[C@](C)(C(=O)O)CCC[C@@]23C)C1 [Example 50, 16-Methoxymethoxy-(−)-Pimara-9(11)-En-4-Carboxylic Acid]	< 2.70	–
C=CC1(C)CC=C2C(CCC3C(C)(CC(=O)NS(=O)(=O)c4ccc(I)cc4)CCCC23C)C1 (stereo not drawn) [Example 38, 4-(N-pipsyl)carbamoylmethyl-(−)-pimara-9(11),15-diene]	4.14	–
C=C[C@@]1(C)CC=C2[C@@H](CC[C@@H]3[C@](C)(CCC(=O)O)CCC[C@@]23C)C1 [Example 9, 4-Carboxyethyl-(−)-pimara-9(11),15-diene]	3.98	inhibition effect against PGE2 synthesis (in words) (COX-2): excellent inhibition effect; edema index size [1]: not more then half; effect on edema index compared with koprofen or indometacin [1]: even superior effect; IC50 at 48 h (Cytotoxicity, MTT assay): 114 µM
CC1(CCO)CC(O)C2C(CCC3C(C)(C(=O)O)CCCC23C)C1 (stereo not drawn) [Example 19, 11,16-Dihydroxy-(−)-pimara-4-carboxylic acid]	< 2.70	pIC50 (Raw 264.7): 3.82
C=CC1(C)CC=C2C(CCC3C(C)(C(=O)NC)CCCC23C)C1 (stereo not drawn) [Example 12, 4-(N-methyl)carbamoyl-(−)-pimara-9(11), 15-diene]	< 2.70	–
C=C[C@@]1(C)CC=C2C(CCC3[C@](C)(C(=O)NN)CCC[C@@]23C)C1 (stereo partly drawn) [Example 13, 4-Carbazoyl-(−)-pimara-9(11), 15-diene]	4.38	–
16-Methoxyethoxymethoxy-(−)-Pimara-9(11)-En-4-Carboxylic Acid [Example 52]	< 2.70	–
C=CC1(C)CC=C2C(CCC3C(C)(C(=O)NO)CCCC23C)C1 (stereo not drawn) [Example 14, 4-(N-hydroxy)carbaomyl-(−)-pimara-9(11), 15-diene]	3.09	–
C=CC1(C)CC=C2C(CCC3C(C)(CCC(=O)NS(C)(=O)=O)CCCC23C)C1 (stereo not drawn) [Example 41, 4-(N-methanesulfonyl)carbamoylethyl-(−)-pimara-9(11),15-diene]	3.75	–
C=CC1(C)CC=C2C(CCC3C(C)(CC(=O)O)CCCC23C)C1 (stereo not drawn) [Example 5, 4-Carboxymethyl-(−)-pimara-9(11),15-diene]	4.08	inhibition effect against PGE2 synthesis (in words) (COX-2): excellent inhibition effect; edema index size [1]: not more then half; effect on edema index compared with koprofen or indometacin [1]: even superior effect; pIC50 (Raw 264.7): 3.86
13-Isoxazolinyl-(−)-pimara-9(11)-en-4-carboxylic acid [Example 21]	< 2.70	pIC50 (Raw 264.7): 3.60
CC(=O)OCCC1(C)CC=C2C(CCC3C(C)(C(=O)O)CCCC23C)C1 (stereo not drawn) [Example 48, 16-Acetyloxy-(−)-Pimara-9(11)-En-4-Carboxylic Acid]	2.85	–
C=CC1(C)CC=C2C(CCC3C(C)(C=CC(=O)O)CCCC23C)C1 (stereo not drawn) [Example 7, 4-Carboxyvinyl-(−)-pimara-9(11),15-diene]	–	inhibition effect against PGE2 synthesis (in words) (COX-2): excellent inhibition effect
C=C[C@@]1(C)CC=C2C(CCC3[C@@]2(C)CCC[C@@]3(C)/C=C/C(=O)O)C1 (stereo partly drawn) [Example 7, 4-Carboxyvinyl-(−)-pimara-9(11),15-diene]	4.16	IC50 at 48 h (Cytotoxicity, MTT assay): 139 µM
C=CC1(C)CC=C2C(CCC3C(C)(C=CC=CC(=O)NS(=O)(=O)c4ccc(I)cc4)CCCC23C)C1 (stereo not drawn) [Example 43, 4-(N-Pipsyl)Carbamoylbutadienyl-(−)-Pimara-9(11),15-Diene]	4.59	–
CON=CCC1(C)CC=C2C(CCC3C(C)(C(=O)O)CCCC23C)C1 (stereo not drawn) [Example 55, 16-Methoxyimino-(−)-Pimara-9(11)-En-4-Carboxylic Acid]	< 2.70	–
C=C[C@@]1(C)CC=C2C(CCC3[C@](C)(C(=O)O)CCC[C@@]23C)C1 (single isomer, unassigned; (-)) [Natural Component, (−)-pimara-9(11),15-diene-4-carboxylic acid, reference compound]	3.10	–
C=CC1(C)CC=C2C(CCC3C(C)(CCC(=O)NS(=O)(=O)c4ccc(I)cc4)CCCC23C)C1 (stereo not drawn) [Example 40, 4-(N-pipsyl)carbamoylethyl-(−)-pimara-9(11),15-diene]	4.22	–
COCC[C@@]1(C)CC=C2[C@@H](CC[C@@H]3[C@](C)(C(=O)O)CCC[C@@]23C)C1 [Example 46, 16-Methoxy-(−)-Pimara-9(11)-En-4-Carboxylic Acid]	< 2.70	–
